{"source": "patent US5236955A", "about": "“Anti-fungal agent” (Washington University, priority 1992, dated 1993)", "key": {"[1]": {"molecular_target": "T1, C. albicans NMT (Candida albicans, UniProt P30418)", "T1 construct": "made in house; host or cells: E. coli", "T1 sequence (P30418 whole entry, the tested form may be a part)": "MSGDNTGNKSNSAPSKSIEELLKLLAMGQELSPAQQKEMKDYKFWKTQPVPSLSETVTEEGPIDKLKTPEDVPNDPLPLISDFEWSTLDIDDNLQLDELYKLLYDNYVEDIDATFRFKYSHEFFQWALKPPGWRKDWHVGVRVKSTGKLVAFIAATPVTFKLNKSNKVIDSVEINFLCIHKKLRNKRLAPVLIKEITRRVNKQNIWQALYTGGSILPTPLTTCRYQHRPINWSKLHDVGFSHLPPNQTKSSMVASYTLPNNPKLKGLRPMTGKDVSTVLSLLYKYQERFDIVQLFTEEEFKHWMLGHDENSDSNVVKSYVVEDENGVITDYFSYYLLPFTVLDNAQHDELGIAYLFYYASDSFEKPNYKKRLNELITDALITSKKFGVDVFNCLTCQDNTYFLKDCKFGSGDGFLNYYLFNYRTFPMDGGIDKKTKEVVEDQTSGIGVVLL", "test": "In vitro discontinuous NMT assay", "type": "biochemical", "conditions": "40 μM fatty acid, HIV-1 Pr55gag octapeptide", "experimental": "(§1) Details of the single point, discontinuous, in vitro NMT assay are described in Examples, below. A tritiated octapeptide derived from residues 2-9 of […] HIV-I Pr55^gag (GARA[^3 H]SVLS-NH2) was used in all assays. The amount of analogpeptide produced is expressed as a percentage of myristoylpeptide generated in a control incubation. All assays were performed in triplicate. The mean ±1 standard deviation is shown. Under the assay conditions employed, the amount of myristoylpeptide generated by purified E. coli-derived S. cerevisiae NMT ranged from 5×10^5 to 2×10^6 pmol/mg enzyme/min while the amount of myristolypeptide produced by purified E. coli-derived, C. albicans NMT ranged from 4×10^5 to 1.5×10^6 pmol/mg enzyme/mni.\n(§2) In vitro discontinuous NMT assay--This assay was carried out by conventional procedures as described by Duronio et al., Methods: A Companion to Methods in Enzymol. 1, 253-263 (1990); Kishore et al., J. Biol. Chem. 266, 8835-8853 (1991). Briefly, a single point assay was performed by first converting myristic acid or a fatty acid analog (final concentration=40 μM) to its CoA thioester using Pseudomonas acylCoA synthetase (EC 6.2.1.3, Sigma Chemical Co.). Following a 25 min incubation at 30° C., purified E. coli derived S. cerevisiae or C. albicans NMT [Rudnick et al., Ibid. 265, 13370-13378 (1990); Wiegand et al., J. Biol. Chem. 267, 8591-8598 (1992)], final concentration=0.1 μg/ml, was added to the reaction mixture together with a tritiated peptide substrate derived from residues 2-9 of the HIV-1 Pr55^gag (Gly-Ala-Arg-[^3 H]Ala-Ser-Val-Leu-Ser-NH2) [Kishore et al., supra (1991); specific activity=1.2 Ci/mmol; final concentration=23 μM]. After an additional 10 min incubation at 30° C., the enzymatically generated, radiolabeled acylpeptide was purified by reverse phase HPLC and quantitated using an in-line scintillation counter [Kishore et al., supra, (1991)]. The amount of analogpeptide formed was expressed as a percentage of the amount of myristoylpeptide formed in a parallel reference assay. All assays were performed in duplicate or triplicate.\n(§3) In vitro studies of purified S. cerevisiae and C. albicans NMT reveal differences in the kinetic properties of oxatetradecanoic and oxatridecanoic acid analogs--To begin to understand the mechanism which underlies the fungicidal activities of some but not all of the oxygen containing fatty acid analogs, the relative activities of the sixteen oxatri-, oxatetradecanoic acids and dioxatetradecanoic acids were examined in an in vitro assay. The two step assay measures NMT-dependent transfer of the acyl chain from an enzymatically generated acylCoA to a radiolabeled peptide substrate. […]"}, "[2]": {"molecular_target": "T2, S. cerevisiae NMT (Saccharomyces cerevisiae, UniProt P14743)", "T2 construct": "made in house; host or cells: E. coli", "T2 sequence (P14743 whole entry)": "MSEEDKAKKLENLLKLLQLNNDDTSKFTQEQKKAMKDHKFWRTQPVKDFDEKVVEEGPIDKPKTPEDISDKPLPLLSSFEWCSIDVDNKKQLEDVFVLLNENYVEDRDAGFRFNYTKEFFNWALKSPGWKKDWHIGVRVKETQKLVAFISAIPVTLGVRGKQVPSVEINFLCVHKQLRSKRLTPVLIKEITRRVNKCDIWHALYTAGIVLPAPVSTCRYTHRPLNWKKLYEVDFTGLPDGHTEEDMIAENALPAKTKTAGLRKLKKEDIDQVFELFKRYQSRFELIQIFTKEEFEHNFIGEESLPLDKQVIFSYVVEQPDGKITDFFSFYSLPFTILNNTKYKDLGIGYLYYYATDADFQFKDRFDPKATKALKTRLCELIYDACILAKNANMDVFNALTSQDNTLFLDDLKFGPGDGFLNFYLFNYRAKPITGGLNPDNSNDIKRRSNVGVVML", "test": "In vitro discontinuous NMT assay", "type": "biochemical", "conditions": "40 μM fatty acid, HIV-1 Pr55gag octapeptide", "experimental": "as §1, §2, §3"}, "[3]": {"test_system": "C. neoformans", "test": "Viability of C. neoformans (viable cells relative to EtOH control culture)", "type": "cell-based, Cryptococcus neoformans", "conditions": "for fungicidal / fungistatic effect on C. neoformans: screening assay; for log reduction at 300 µM: relative to 0.1% EtOH control, read-out: decrease in viable cells (converted); for attenuation of fungicidal activity on shortening by one methylene: versus corresponding oxatetradecanoic acid, 300 μM", "experimental": "(§4) Panel A, survey of the effects of several oxatetradecanoic acids on the growth of C. neoformans. A culture of C. neoformans was grown at 30° C. in SAB media to midlog phase (A600 ~0.5). A single dose of fatty acid was then added to subcultures (final concentration=300 μM). EtOH(0.1%) was used as a negative control. Amphotericin B (AmB) was added (final concentraton=55 μM) as a positive control. Aliquots were withdrawn from the subcultures 0, 0.5, 2, 4, 7, 21, and 24 h after these additions and then absorbance at 600 nm was measured. All assays were done in duplicate or triplicate. A representative test is shown. Panel B, survey of the effects of oxatetradecanoic acids, dioxatetradecanoic acids and oxatridecanoic acids on the viability of C. neoformans. Fatty acid analog was added to the cultures as in Panel A. Aliquots were withdrawn 0.5, 2, 4, 7 or 8, and 24 h later and plated on SAB-agar at various dilutions to determine the number of viable organisms/ml culture. All assays were done in duplicate. Data from a representative test are expressed as the ratio of viable cells in treated cultures relative to a control culture that received 0.1% EtOH. A positive control culture received a single dose of amphotericin B (55 μM); Panel C, dose-dependent reduction in the viability of C. neoformans after addition of 4-oxatetradecanoic acid (O4) to cultures during log-phase growth at 30° C. in SAB. A single dose of the analog was given at T=0 h in the amount indicated and aliquots of the culture were withdrawn at various times to determine the number of viable cells. All assays were done in triplicate. A representative test is shown.\n(§5) Saccharomyces cerevisiae strain YM2061 (MATa ura3-52 his3Δ200 ade2-101 lys2-801 met LEU2::pRY181 can1; Flick and Johnston, Mol. Cell. Biol. 10, 4757-4769 (1990), Candida albicans strain B311 (obtained from the American Type Tissue Culture, Rockville, Md.), or Cryptococcus neoformans strain L210425 (a clinical isolate that is part of the permanent culture collection of the Mycology Laboratory, Barnes Hospital, St. Louis, Mo.) were grown overnight at 30 C. The S. cerevisiae strain was incubated in YPD medium (1% bacto-yeast extract, Gibco, Long Island, N.Y.), 2% bacto-peptone (Gibco), 2% dextrose). The C. albicans and C. neoformans strains were grown in Sabouraud's media (SAB; 2% (w/v) dextrose, 1% bacto-peptone). The following morning the cultures were diluted into fresh medium to the desired density at 600 nm (early log phase), and subsequently incubated in a rotary shaker at 30° C. until an A600 =0.5 (mid log phase) was achieved. The culture was then divided into 10 ml aliquots. A single 10 μl aliquot of a stock solution of fatty acid analog (prepared in various concentrations using absolute ethanol) was added to the culture so that the final concentration of the compound was 100-500 μM (T=0). Ten microliters of ethanol alone was added to one 10 ml culture which served as the negative control. Amphotericin B (AmB; in the form of Fungizone, Squibb) was added (final concentration=55 μM) to another culture which served as the positive control. At T=0 and 0.5-24 h after addition of fatty acid analog to the subcultures, an aliquot was removed for determining the density of the subculture at 600 nm. Cell viability was determined at each of these time points by (i) serially diluting the aliquot in 0.15M NaCl and counting cell number in a hemocytometer and (ii) plating 2-3 of the dilutions in triplicate onto plates of SAB/agar (C. albicans and C. neoformans) or YPD/agar (S. cerevisiae). These plates were subsequently incubated at 30° C. for 24-48 hr to allow for the growth of colonies. The data were expressed as the ratio of viable cells/ml in the fatty acid analog treated subculture to the number of viable cells/ml in the negative (ethanol) control culture."}, "[4]": {"test_system": "C. neoformans", "test": "Growth of C. neoformans cultures (absorbance at 600 nm)", "type": "cell-based, Cryptococcus neoformans", "experimental": "as §4\nas §5, with “Amphotericin B (AmB; in the form of Fungizone, Squibb) was added (final concentration=55 μM) to another culture which served as the positive control. At T=0 and 0.5-24 h after addition of fatty acid analog to the subcultures, an aliquot was removed for determining the density of the subculture at 600 nm.” left out, “These plates were subsequently incubated at 30° C. for 24-48 hr to allow for the growth of colonies.” left out, “culture. […]” for “culture.”"}, "[5]": {"test_system": "C. albicans", "test": "Viability of C. albicans", "type": "cell-based", "conditions": "Candida albicans", "experimental": "(§6) Oxatetradecanoic acids were added (final concentraton=25-500 μM) as a single dose to log phase cultures of C. alibcans grown in SAB at 30° C. (Panels A and B) and to log phase cultures of S. cerevisiae grown in YPD at 30° C. (Panels C and D). The results were compared to the number of viable organisms present in cultures treated with 0.1% EtOH alone. […] A single does of alphotericin B (final concentration=55 μM) was added to parallel cultures which served as positive controls. Assays were done in duplicate. Representative tests are shown.\nas §5"}, "[6]": {"test_system": "S. cerevisiae", "test": "Viability of S. cerevisiae", "type": "cell-based", "conditions": "Saccharomyces cerevisiae", "experimental": "as §6, §5"}, "[7]": {"conditions": "Cryptococcus neoformans, 300 μM single dose"}}}
{"smiles": "CCCCCCCCCCCOCC(=O)SCCNC(=O)CCNC(=O)[C@H](O)C(C)(C)COP(=O)(O)OP(=O)(O)OC[C@H]1O[C@@H](n2cnc3c(N)ncnc32)[C@H](O)[C@@H]1OP(=O)(O)O", "note": "[3-oxatetradecanoylCoA]", "values": [{"measurement": "activity of analogCoA relative to myristoylCoA", "setting": "[1]", "value": "equivalent to myristate"}, {"measurement": "activity of analogCoA relative to myristoylCoA", "setting": "[2]", "value": "equivalent to myristate"}]}
{"smiles": "COCCCCCCCCOCCC(=O)O", "note": "[4,13 dioxatetradecanoic acid, 4,13-Dioxatetradecanoic acid]", "values": [{"measurement": "fungicidal / fungistatic effect on C. neoformans", "setting": "[3]; 300 μM single dose", "value": "did not convert O13 to an active analog"}]}
{"smiles": "CCCCCCCCCCOCCC(=O)SCCNC(=O)CCNC(=O)[C@H](O)C(C)(C)COP(=O)(O)OP(=O)(O)OC[C@H]1O[C@@H](n2cnc3c(N)ncnc32)[C@H](O)[C@@H]1OP(=O)(O)O", "note": "[4-oxatetradecanoylCoA]", "values": [{"measurement": "activity of analogCoA relative to myristoylCoA", "setting": "[1]", "value": -3, "unit": "fold"}, {"measurement": "activity of analogCoA relative to myristoylCoA", "setting": "[2]", "value": -3, "unit": "fold"}]}
{"smiles": "CCCCCCCCCOCCC(=O)O", "note": "[4-oxatridecanoic acid, 4-Oxatridecanoic acid]", "values": [{"measurement": "time needed to produce the decrease in viable cells", "setting": "[3]; 300 μM single dose", "value": "6 to 7", "unit": "h"}, {"measurement": "log reduction at 300 µM", "setting": "[3]; [7]", "value": 3}, {"measurement": "attenuation of fungicidal activity on shortening by one methylene", "setting": "[3]", "value": 10, "unit": "fold"}]}
{"smiles": "COCCCCCCCOCCCC(=O)O", "note": "[5,13 dioxatetradecanoic acid, 5,13-Dioxatetradecanoic acid]", "values": [{"measurement": "fungicidal / fungistatic effect on C. neoformans", "setting": "[3]; 300 μM single dose", "value": "did not convert O13 to an active analog"}]}
{"smiles": "CCCCCCCCOCCCC(=O)O", "note": "[5-oxatridecanoic acid, 5-Oxatridecanoic acid]", "values": [{"measurement": "fungicidal / fungistatic effect on C. neoformans", "setting": "[3]; 300 μM single dose", "value": "not active"}, {"measurement": "attenuation of fungicidal activity on shortening by one methylene", "setting": "[3]", "value": 10, "unit": "fold"}]}
{"smiles": "C[C@@H]1[C@H](O)[C@@H](C)/C=C/C=C/C=C/C=C/C=C/C=C/C=C/[C@H](O[C@@H]2O[C@H](C)[C@@H](O)[C@H](N)[C@@H]2O)C[C@@H]2O[C@](O)(C[C@@H](O)C[C@@H](O)[C@H](O)CC[C@@H](O)C[C@@H](O)CC(=O)O[C@H]1C)C[C@H](O)[C@H]2C(=O)O", "note": "[Amphotericin B, reference compound]", "values": [{"measurement": "effect on growth of C. neoformans, as determined by optical density", "setting": "[4]; 55 μM, positive control", "value": "growth arrest"}, {"measurement": "log reduction at 55 µM", "setting": "[3]; Cryptococcus neoformans, read-out: reduction in viable cell number", "value": 6}]}
{"smiles": "CCCCCCCCCOCCCC(=O)O", "note": "[O5, 5-oxatetradecanoic acid]", "values": [{"measurement": "fungicidal / fungistatic effect on C. neoformans", "setting": "[3]; 300 μM single dose", "value": "fungicidal"}, {"measurement": "log reduction at 300 µM", "setting": "[3]; [7]", "value": 3}, {"measurement": "log reduction at 300 µM", "setting": "[5]; 300 μM, 2 hr after addition, read-out: reductions in the number of viable C. albicans", "value": "< 0.699"}, {"measurement": "log reduction at 500 µM", "setting": "[5]; 500 μM, read-out: reduction in the number of viable organisms (C. albicans)", "value": "1 to 2"}, {"measurement": "log reduction at 300 µM", "setting": "[6]; 300 μM, 2 hr after addition, read-out: reductions in the number of viable S. cerevisiae", "value": "< 0.699"}, {"measurement": "log reduction at 500 µM", "setting": "[6]; 500 μM, read-out: reduction in the number of viable organisms (S. cerevisiae)", "value": "1 to 2"}]}
{"smiles": "CCCCCCCOCCCCCC(=O)O", "note": "[O7]", "values": [{"measurement": "fungicidal / fungistatic effect on C. neoformans", "setting": "[3]; 300 μM single dose", "value": "no measurable effect on the growth"}]}
{"smiles": "CCCCCCOCCCCCCC(=O)O", "note": "[O8]", "values": [{"measurement": "fungicidal / fungistatic effect on C. neoformans", "setting": "[3]; 300 μM single dose", "value": "no measurable effect on the growth"}]}
{"smiles": "CCCCOCCCCCCCCC(=O)O", "note": "[O10]", "values": [{"measurement": "fungicidal / fungistatic effect on C. neoformans", "setting": "[3]; 300 μM single dose", "value": "no measurable effect on the growth"}]}
{"smiles": "CCCOCCCCCCCCCC(=O)O", "note": "[O11, 11-Oxatetradecanoic acid]", "values": [{"measurement": "effect on growth of C. neoformans, as determined by optical density", "setting": "[4]; single 300 μM dose, exponential phase, 30° C., SAB, up to 24 h", "value": "virtually no effect on growth"}, {"measurement": "fungicidal / fungistatic effect on C. neoformans", "setting": "[3]; 300 μM single dose", "value": "no measurable effect on the growth"}]}
{"smiles": "CCOCCCCCCCCCCC(=O)O", "note": "[O12]", "values": [{"measurement": "fungicidal / fungistatic effect on C. neoformans", "setting": "[3]; 300 μM single dose", "value": "no measurable effect on the growth"}]}
